Experimental data published in US20160108027A1, “SUBSTITUTED BENZOXAZOLES” (BAYER PHARMA AKTIENGESELLSCHAFT, priority 2013, published 2016).

Key:
[1] = target: T1, thrombin (Homo sapiens, UniProt P00734); experiment: Measurement of the thrombin inhibition in buffer; format: biochemical; conditions: human thrombin 0.06 nmol/l in Tris buffer pH 7.4, 22° C., substrate Boc-Asp(OBzl)-Pro-Arg-AMC; in some cases means of individual determinations
Method: To determine the thrombin inhibition of the substances listed above, a biochemical test system is constructed in which the conversion of a thrombin substrate is used for determining the enzymatic activity of human thrombin. Here, thrombin cleaves aminomethylcoumarin, which is measured fluorescently, from the peptic substrate. The determinations are carried out in microtitre plates.
Substances to be tested are dissolved in various concentrations in dimethyl sulphoxide and incubated for 15 min with human thrombin (0.06 nmol/l dissolved in 50 mmol/l of Tris buffer [C,C,C-tris(hydroxymethyl)aminomethane], 100 mmol/l of sodium chloride, 0.1% BSA [bovine serum albumin], pH 7.4) at 22° C. The substrate (5 μmol/l Boc-Asp(OBzl)-Pro-Arg-AMC from Bachem) is then added. After 30 min of incubation, the sample is excited at a wavelength of 360 nm and the emission is measured at 460 nm. The measured emissions of the test mixtures with test substance are compared to the control mixtures without test substance (only dimethyl sulphoxide instead of test substance in dimethyl sulphoxide) and IC50 values are calculated from the concentration/activity relationships. Representative activity data from this test are given in Table 1 below (in some cases as means of individual determinations): […]

[2] = target: T1, thrombin; experiment: Determination of the thrombin-inhibitory activity in plasma samples (ecarin-activated); format: biochemical; conditions: citrate plasma, ecarin activation, fluorogenic thrombin substrate; in some cases means of individual determinations
Method: To determine the inhibition of thrombin in plasma samples, plasma […] is activated by ecarin. Thrombin activity and/or its inhibition by potential inhibitors is/are then measured fluorenscently by addition of a substrate.
The substances to be tested are dissolved in various concentrations in dimethyl sulphoxide and diluted with water. In white 96-well flat-bottomed plates, 20 μl of substance dilution are mixed with 20 μl of ecarin solution (ecarin reagent, from Sigma E-0504, final concentration 20 mU per reaction) in Ca buffer (200 mM Hepes+560 mM sodium chloride+10 mM calcium chloride+0.4% PEG) or with 20 μl of Ca buffer (as unstimulated control). Furthermore, 20 μl of fluorogenic thrombin substrate (from Bachem 1-1120, final concentration 50 μmol/1) and 20 μl of citrate plasma (from Octapharma) are added, and the mixture is homogenized well. The plate is measured in a SpectraFluorplus Reader using a 360 nm excitation filter and a 465 nm emission filter every minute over 20 minutes. […] Representative activity data from this test are given in Table 2 below (in some cases as means of individual determinations): […]

| SMILES | IC50 [1] [nM] | IC50 [2] [nM] |
| --- | --- | --- |
| COc1cc(C(=O)N2CC(C)OCC23CC(O)C3)cc2nc(NCc3cc(Cl)ccn3)oc12 (single isomer, unassigned) [Example 53, (2-{[(4-Chloropyridin-2-yl)methyl]amino}-7-methoxy-1,3-benzoxazol-5-yl)(2-hydroxy-7-methyl-8-oxa-5-azaspiro[3.5]non-5-yl)methanone] | 36 | 49 |
| COc1cc(C(=O)N2CC(C)OCC2CC(C)(C)O)cc2nc(NCc3cc(Cl)ccn3)oc12 (single isomer, unassigned) [Example 56, (2-{[(4-Chloropyridin-2-yl)methyl]amino}-7-methoxy-1,3-benzoxazol-5-yl) [5-(2-hydroxy-2-methylpropyl)-2-methylmorpholin-4-yl]methanone] | 25 | 57 |
| COc1cc(C(=O)N2CC(C)OCC2CC(C)(C)O)cc2nc(NCc3cc(Cl)ccn3)oc12 (single isomer, unassigned) [Example 57, (2-{[(4-Chloropyridin-2-yl)methyl]amino}-7-methoxy-1,3-benzoxazol-5-yl) [5-(2-hydroxy-2-methylpropyl)-2-methylmorpholin-4-yl]methanone] | 20 | 30 |
| COc1cc(C(=O)N2CC(C)(CCO)OCC2COC(F)F)cc2nc(NCc3cc(Cl)ccn3)oc12 (single isomer, unassigned) [Example 60, (2-{[(4-Chloropyridin-2-yl)methyl]amino}-7-methoxy-1,3-benzoxazol-5-yl){5-[(difluoromethoxy)methyl]-2-(2-hydroxyethyl)-2-methylmorpholin-4-yl}methanone] | 5.2 | 24 |
| COc1cc(C(=O)N2CCOC(C)(CC(C)O)C2)cc2nc(NCc3cc(Cl)ccn3)oc12 (single isomer, unassigned) [Example 61, (2-{[(4-Chloropyridin-2-yl)methyl]amino}-7-methoxy-1,3-benzoxazol-5-yl) [2-(2-hydroxypropyl)-2-methylmorpholin-4-yl]methanone] | 24 | 100 |
| COc1cc(C(=O)N2CC(C)(C)OCC2CC(C)O)cc2nc(NCc3cc(Cl)ccn3)oc12 (single isomer, unassigned) [Example 62, (2-{[(4-Chloropyridin-2-yl)methyl]amino}-7-methoxy-1,3-benzoxazol-5-yl) [5-(2-hydroxypropyl)-2,2-dimethylmorpholin-4-yl]methanone] | 68 | 107 |
| COc1cc(C(=O)N2CC(C)(C)OCC2CC(C)O)cc2nc(NCc3cc(Cl)ccn3)oc12 (single isomer, unassigned) [Example 63, (2-{[(4-Chloropyridin-2-yl)methyl]amino}-7-methoxy-1,3-benzoxazol-5-yl) [5-(2-hydroxypropyl)-2,2-dimethylmorpholin-4-yl]methanone] | 11 | 20 |
| COc1cc(C(=O)N2CC(C)(C)OCC2CC(C)O)cc2nc(NCc3cc(Cl)ccn3)oc12 (single isomer, unassigned) [Example 65, (2-{[(4-Chloropyridin-2-yl)methyl]amino}-7-methoxy-1,3-benzoxazol-5-yl) [5-(2-hydroxypropyl)-2,2-dimethylmorpholin-4-yl]methanone] | 24 | 61 |
| COc1cc(C(=O)N2CC(C)OCC2CC(C)O)cc2nc(NCc3cc(Cl)ccn3)oc12 (single isomer, unassigned) [Example 67, (2-{[(4-Chloropyridin-2-yl)methyl]amino}-7-methoxy-1,3-benzoxazol-5-yl) [5-(2-hydroxypropyl)-2-methylmorpholin-4-yl]methanone] | 16 | 38 |
| COc1cc(C(=O)N2CC(C)OCC2CCO)cc2nc(NCc3cc(Cl)ccn3)oc12 (single isomer, unassigned) [Example 72, (2-{[(4-Chloropyridin-2-yl)methyl]amino}-7-methoxy-1,3-benzoxazol-5-yl) [5-(2-hydroxyethyl)-2-methylmorpholin-4-yl]methanone] | 29 | 37 |
| COCC1C(=O)N2CCC2CN1C(=O)c1cc(OC)c2oc(NCc3cc(Cl)ccn3)nc2c1 (single isomer, unassigned) [Example 74, 4-[(2-{[(4-Chloropyridin-2-yl)methyl]amino}-7-methoxy-1,3-benzoxazol-5-yl)carbonyl]-3-(methoxymethyl)-1,4-diazabicyclo[4.2.0]octan-2-one] | 32 | 56 |
| COc1cc(C(=O)N2CC3CCN3C(=O)C2C)cc2nc(NCc3cc(Cl)ccn3)oc12 (single isomer, unassigned) [Example 75, 4-[(2-{[(4-Chloropyridin-2-yl)methyl]amino}-7-methoxy-1,3-benzoxazol-5-yl)carbonyl]-3-methyl-1,4-diazabicyclo[4.2.0]octan-2-one] | 32 | 48 |
| COc1cc(C(=O)N2CC3(CC3)NC(=O)C2C)cc2nc(NCc3cc(Cl)ccn3)oc12 (single isomer, unassigned) [Example 77, 7-[(2-{[(4-Chloropyridin-2-yl)methyl]amino}-7-methoxy-1,3-benzoxazol-5-yl)carbonyl]-6-methyl-4,7-diazaspiro[2.5]octan-5-one] | 14 | 23 |
| CCC1C(=O)NC2(CC2)CN1C(=O)c1cc(OC)c2oc(NCc3cc(Cl)ccn3)nc2c1 (single isomer, unassigned) [Example 79, 7-[(2-{[(4-Chloropyridin-2-yl)methyl]amino}-7-methoxy-1,3-benzoxazol-5-yl)carbonyl]-6-ethyl-4,7-diazaspiro[2.5]octan-5-one] | 4.5 | 14 |
| CCC1C(=O)NC(C)CN1C(=O)c1cc(OC)c2oc(NCc3cc(Cl)ccn3)nc2c1 (single isomer, unassigned) [Example 80, 4-[(2-{[(4-Chloropyridin-2-yl)methyl]amino}-7-methoxy-1,3-benzoxazol-5-yl)carbonyl]-3-ethyl-6-methylpiperazin-2-one] | 16 | 16 |
| CCC1C(=O)NC(C)CN1C(=O)c1cc(OC)c2oc(NCc3cc(Cl)ccn3)nc2c1 (single isomer, unassigned) [Example 81, 4-[(2-{[(4-Chloropyridin-2-yl)methyl]amino}-7-methoxy-1,3-benzoxazol-5-yl)carbonyl]-3-ethyl-6-methylpiperazin-2-one] | 12 | 32 |
| COc1cc(C(=O)N2CC(C)(C)NC(=O)C2CC#N)cc2nc(NCc3cc(Cl)ccn3)oc12 (single isomer, unassigned) [Example 84, {1-[(2-{[(4-chloropyridin-2-yl)methyl]amino}-7-methoxy-1,3-benzoxazol-5-yl)carbonyl]-5,5-dimethyl-3-oxopiperazin-2-yl}acetonitrile] | 11 | 21 |
| COc1cc(C(=O)N2CC(C)CCC2CCO)cc2nc(NCc3cc(Cl)ccn3)oc12 (single isomer, unassigned) [Example 85, (2-{[(4-Chloropyridin-2-yl)methyl]amino}-7-methoxy-1,3-benzoxazol-5-yl) [2-(2-hydroxyethyl)-5-methylpiperidin-1-yl]methanone] | 17 | 47 |
| COc1cc(C(=O)N2CC(C)CCC2C2(O)CC2)cc2nc(NCc3cc(Cl)ccn3)oc12 (single isomer, unassigned) [Example 89, (2-{[(4-Chloropyridin-2-yl)methyl]amino}-7-methoxy-1,3-benzoxazol-5-yl) [2-(1-hydroxycyclopropyl)-5-methylpiperidin-1-yl]methanone] | 17 | 35 |
| COc1cc(C(=O)N2CC(C)CCC2C2(O)CC2)cc2nc(NCc3cc(Cl)ccn3)oc12 (single isomer, unassigned) [Example 90, (2-{[(4-Chloropyridin-2-yl)methyl]amino}-7-methoxy-1,3-benzoxazol-5-yl) [2-(1-hydroxycyclopropyl)-5-methylpiperidin-1-yl]methanone] | 28 | 94 |
| COc1cc(C(=O)N2CC(C)CCC2C2(O)CC2)cc2nc(NCc3cc(Cl)ccn3)oc12 (single isomer, unassigned) [Example 91, (2-{[(4-Chloropyridin-2-yl)methyl]amino}-7-methoxy-1,3-benzoxazol-5-yl) [2-(1-hydroxycyclopropyl)-5-methylpiperidine-1-yl]methanone] | 13 | 24 |
